How the values were obtained:
LXRβ = molecular target: T1, LXRβ (Homo sapiens, UniProt P55055); assay: LXRβ reporter gene assay in HEK293; type: cell-based; conditions: read-out: LXRβ antagonistic activity (IC50)
T1 construct: CMX-GAL4N-hLXRβ-LBD; expressed in transfected cells; host or cells: HEK293
T1 sequence (P55055 222-460 limits assumed): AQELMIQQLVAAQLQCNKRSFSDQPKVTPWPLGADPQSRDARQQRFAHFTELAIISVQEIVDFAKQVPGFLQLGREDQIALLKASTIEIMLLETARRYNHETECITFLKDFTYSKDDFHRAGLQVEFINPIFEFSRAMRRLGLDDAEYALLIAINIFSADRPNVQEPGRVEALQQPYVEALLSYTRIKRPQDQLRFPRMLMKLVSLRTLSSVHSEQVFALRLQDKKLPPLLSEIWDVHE

GR = molecular target: T2, GR (Homo sapiens, UniProt P04150); assay: GR reporter gene assay in HEK293; type: cell-based; conditions: reporter gene assay, HEK293; agonist dexamethasone 1 nM; read-out: GR antagonistic activity (IC50)
T2 construct: expressed in transfected cells; host or cells: HEK293
T2 sequence (P04150 1-777): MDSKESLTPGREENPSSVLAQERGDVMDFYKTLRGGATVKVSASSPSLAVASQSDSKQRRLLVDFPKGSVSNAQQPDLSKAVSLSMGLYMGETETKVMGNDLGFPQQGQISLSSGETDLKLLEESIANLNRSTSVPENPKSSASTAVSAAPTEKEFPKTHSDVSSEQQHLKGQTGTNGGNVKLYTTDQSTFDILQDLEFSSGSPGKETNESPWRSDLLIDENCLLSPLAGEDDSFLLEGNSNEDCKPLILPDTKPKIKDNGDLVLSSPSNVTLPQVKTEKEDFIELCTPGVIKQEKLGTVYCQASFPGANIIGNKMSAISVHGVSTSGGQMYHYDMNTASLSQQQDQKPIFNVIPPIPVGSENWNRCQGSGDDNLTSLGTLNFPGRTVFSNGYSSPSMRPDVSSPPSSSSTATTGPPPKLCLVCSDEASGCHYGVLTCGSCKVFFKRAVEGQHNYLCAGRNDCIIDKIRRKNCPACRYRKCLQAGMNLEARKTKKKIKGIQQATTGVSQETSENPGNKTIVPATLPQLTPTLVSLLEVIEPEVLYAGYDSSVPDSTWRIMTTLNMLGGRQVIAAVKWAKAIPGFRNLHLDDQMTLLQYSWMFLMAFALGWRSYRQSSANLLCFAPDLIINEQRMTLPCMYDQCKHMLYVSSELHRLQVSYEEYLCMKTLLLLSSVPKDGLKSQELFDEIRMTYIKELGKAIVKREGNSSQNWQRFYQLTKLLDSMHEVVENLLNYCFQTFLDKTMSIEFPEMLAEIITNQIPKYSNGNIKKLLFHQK

AR = molecular target: T3, AR (Homo sapiens, UniProt P10275); assay: AR reporter gene assay in HEK293; type: cell-based; conditions: reporter gene assay, HEK293; agonist dihydrotestosterone 0.3 nM; read-out: AR antagonistic activity (IC50), AR reporter gene
T3 sequence (P10275 1-920): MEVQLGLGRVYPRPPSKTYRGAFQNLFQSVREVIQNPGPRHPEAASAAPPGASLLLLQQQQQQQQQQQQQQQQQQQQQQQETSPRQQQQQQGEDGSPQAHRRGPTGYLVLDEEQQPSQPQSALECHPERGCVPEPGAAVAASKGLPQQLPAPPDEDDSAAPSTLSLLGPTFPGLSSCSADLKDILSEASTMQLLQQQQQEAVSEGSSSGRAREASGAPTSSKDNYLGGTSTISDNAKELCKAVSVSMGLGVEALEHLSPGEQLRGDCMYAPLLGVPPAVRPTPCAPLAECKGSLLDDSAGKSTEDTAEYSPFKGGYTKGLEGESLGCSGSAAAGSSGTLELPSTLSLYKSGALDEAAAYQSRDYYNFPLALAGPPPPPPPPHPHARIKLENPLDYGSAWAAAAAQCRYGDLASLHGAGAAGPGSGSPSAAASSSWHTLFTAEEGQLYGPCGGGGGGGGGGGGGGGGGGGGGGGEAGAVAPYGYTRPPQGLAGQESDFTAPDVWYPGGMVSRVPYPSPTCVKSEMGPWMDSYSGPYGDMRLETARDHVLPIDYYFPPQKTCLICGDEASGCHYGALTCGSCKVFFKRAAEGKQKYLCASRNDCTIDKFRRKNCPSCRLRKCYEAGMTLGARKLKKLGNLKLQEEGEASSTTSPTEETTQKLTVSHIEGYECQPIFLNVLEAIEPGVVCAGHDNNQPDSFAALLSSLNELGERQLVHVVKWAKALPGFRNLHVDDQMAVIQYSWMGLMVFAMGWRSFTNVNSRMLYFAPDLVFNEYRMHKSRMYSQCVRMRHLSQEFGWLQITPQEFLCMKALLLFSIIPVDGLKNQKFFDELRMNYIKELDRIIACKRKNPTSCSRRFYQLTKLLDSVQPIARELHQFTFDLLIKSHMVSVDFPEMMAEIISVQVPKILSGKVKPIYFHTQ

PR = molecular target: T4, PR (Homo sapiens, UniProt P06401); conditions: alkaline phosphatase, T47D cells, progesterone 1 nM; read-out: PR antagonistic activity (IC50); cited from earlier work
T4 sequence (P06401 1-933): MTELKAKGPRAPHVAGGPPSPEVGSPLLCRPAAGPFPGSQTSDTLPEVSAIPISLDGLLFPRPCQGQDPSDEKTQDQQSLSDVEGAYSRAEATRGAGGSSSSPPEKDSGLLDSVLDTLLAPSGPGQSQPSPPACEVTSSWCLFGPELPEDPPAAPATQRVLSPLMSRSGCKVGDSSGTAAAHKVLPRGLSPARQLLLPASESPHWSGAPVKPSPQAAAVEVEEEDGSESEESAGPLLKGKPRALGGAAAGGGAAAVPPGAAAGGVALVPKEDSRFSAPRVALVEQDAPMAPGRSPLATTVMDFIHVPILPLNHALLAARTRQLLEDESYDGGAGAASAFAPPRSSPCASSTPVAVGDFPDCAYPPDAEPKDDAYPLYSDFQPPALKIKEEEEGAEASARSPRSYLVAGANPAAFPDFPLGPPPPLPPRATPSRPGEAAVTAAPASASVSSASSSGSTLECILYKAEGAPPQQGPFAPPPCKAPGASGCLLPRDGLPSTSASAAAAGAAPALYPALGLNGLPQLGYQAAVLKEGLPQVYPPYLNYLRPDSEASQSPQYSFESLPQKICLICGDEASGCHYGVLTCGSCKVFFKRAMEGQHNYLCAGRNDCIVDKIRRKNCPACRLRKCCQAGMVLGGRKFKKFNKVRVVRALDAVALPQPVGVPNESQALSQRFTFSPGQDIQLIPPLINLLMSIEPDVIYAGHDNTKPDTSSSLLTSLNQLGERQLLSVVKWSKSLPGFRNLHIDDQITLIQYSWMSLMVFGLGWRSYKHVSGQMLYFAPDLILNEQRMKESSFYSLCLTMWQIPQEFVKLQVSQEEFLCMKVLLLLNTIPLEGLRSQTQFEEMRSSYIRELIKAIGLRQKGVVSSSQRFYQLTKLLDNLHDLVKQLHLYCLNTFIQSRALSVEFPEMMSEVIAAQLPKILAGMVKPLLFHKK

LXRα = molecular target: T5, LXRα (Homo sapiens, UniProt Q13133); assay: LXRα reporter gene assay in HEK293; type: cell-based; conditions: read-out: LXRα antagonistic activity (IC50)
T5 construct: CMX-GAL4N-hLXRα-LBD; expressed in transfected cells; host or cells: HEK293
T5 sequence (Q13133 209-447 limits assumed): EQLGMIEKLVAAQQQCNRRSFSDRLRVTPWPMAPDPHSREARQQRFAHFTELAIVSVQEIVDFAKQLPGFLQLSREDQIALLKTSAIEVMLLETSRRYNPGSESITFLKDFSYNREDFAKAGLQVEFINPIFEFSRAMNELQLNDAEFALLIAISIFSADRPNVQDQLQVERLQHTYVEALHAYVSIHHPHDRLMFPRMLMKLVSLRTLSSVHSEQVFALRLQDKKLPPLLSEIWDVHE

RORα = molecular target: T6, RORα (Homo sapiens, UniProt P35398); conditions: reporter gene assay, HEK293; read-out: RORα inverse agonistic activity (IC50); cited from earlier work
T6 construct: expressed in transfected cells; host or cells: HEK293
T6 sequence (P35398 1-523): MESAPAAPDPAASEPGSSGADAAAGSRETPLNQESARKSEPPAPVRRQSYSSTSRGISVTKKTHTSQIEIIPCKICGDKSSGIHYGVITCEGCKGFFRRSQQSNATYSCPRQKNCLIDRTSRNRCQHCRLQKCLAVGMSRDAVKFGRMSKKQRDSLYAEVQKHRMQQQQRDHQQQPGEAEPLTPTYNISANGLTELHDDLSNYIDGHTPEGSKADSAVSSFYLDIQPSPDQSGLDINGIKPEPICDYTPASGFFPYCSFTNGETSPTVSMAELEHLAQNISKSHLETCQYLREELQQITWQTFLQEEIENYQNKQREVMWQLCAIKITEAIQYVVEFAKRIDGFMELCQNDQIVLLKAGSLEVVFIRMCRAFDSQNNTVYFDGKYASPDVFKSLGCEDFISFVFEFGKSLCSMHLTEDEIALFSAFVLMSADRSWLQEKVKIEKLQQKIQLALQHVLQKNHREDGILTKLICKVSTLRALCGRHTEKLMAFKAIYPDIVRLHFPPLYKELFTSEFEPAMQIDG

RORβ = molecular target: T7, RORβ (Homo sapiens, UniProt Q92753); conditions: reporter gene assay, HEK293; read-out: RORβ inverse agonistic activity (IC50); cited from earlier work
T7 construct: expressed in transfected cells; host or cells: HEK293
T7 sequence (Q92753 1-459 isoform Q92753-1): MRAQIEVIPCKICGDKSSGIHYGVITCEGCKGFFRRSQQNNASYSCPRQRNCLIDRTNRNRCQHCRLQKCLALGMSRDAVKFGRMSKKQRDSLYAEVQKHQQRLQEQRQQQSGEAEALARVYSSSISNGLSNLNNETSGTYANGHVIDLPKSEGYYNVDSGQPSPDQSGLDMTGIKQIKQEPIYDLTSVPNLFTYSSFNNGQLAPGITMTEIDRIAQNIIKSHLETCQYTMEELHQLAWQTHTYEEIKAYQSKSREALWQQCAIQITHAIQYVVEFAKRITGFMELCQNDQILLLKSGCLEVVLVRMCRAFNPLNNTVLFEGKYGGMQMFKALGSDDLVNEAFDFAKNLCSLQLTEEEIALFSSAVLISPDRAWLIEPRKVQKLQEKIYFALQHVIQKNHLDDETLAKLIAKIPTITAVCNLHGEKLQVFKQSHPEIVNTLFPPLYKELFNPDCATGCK

RORγ = molecular target: T8, RORγ (Homo sapiens, UniProt P51449); conditions: reporter gene assay, HEK293; read-out: RORγ inverse agonistic activity (IC50); cited from earlier work
T8 construct: expressed in transfected cells; host or cells: HEK293
T8 sequence (P51449 1-518): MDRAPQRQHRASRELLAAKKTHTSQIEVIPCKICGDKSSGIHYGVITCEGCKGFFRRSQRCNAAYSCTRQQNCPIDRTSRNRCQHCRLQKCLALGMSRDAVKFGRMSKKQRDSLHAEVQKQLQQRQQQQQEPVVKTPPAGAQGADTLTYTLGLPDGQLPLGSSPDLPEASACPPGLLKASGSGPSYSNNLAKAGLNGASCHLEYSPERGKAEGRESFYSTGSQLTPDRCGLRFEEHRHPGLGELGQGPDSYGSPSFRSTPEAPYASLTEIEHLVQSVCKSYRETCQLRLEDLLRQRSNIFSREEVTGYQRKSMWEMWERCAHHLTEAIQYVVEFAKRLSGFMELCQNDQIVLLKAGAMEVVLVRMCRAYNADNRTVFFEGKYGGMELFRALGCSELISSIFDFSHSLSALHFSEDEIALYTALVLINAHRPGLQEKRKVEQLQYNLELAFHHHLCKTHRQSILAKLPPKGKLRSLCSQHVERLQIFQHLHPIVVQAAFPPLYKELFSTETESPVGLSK

Compound	IC50 (LXRβ)	IC50 (GR)	IC50 (AR)	IC50 (LXRα)	IC50 (PR)	IC50 (RORα)	IC50 (RORβ)	IC50 (RORγ)
CCCCn1c(=O)c2ccc(Cl)cc2c2cc(C(O)(C(F)(F)F)C(F)(F)F)ccc21 [Compound 2]	0.88 µM	10 µM	5.2 µM	9.2 µM	4.3 µM			
Cc1cc(C(O)(C(F)(F)F)C(F)(F)F)cc2c3ccc(F)cc3c(=O)n(C)c12 [Compound 3]			0.3 µM			> 20 µM	> 20 µM	> 20 µM
CCCCn1c(=O)c2ccccc2c2cc(C)ccc21 [Compound 8]	16 µM	> 20 µM	11 µM	17 µM		18 µM		17 µM
CCCCn1c(=O)c2ccccc2c2cc(CC)ccc21 [Compound 9]	16 µM	19 µM	19 µM	17 µM				
CCCn1c(=O)c2ccccc2c2cc(C(O)(C(F)(F)F)C(F)(F)F)ccc21 [Compound 15]	6.9 µM	17 µM	5.6 µM	12 µM		11 µM		
Cc1cc(C(O)(C(F)(F)F)C(F)(F)F)cc2c1[nH]c(=O)c1ccccc12 [Compound 40]						> 20 µM	> 20 µM	> 20 µM

More lines, main results first:

IC50 (LXRβ)	IC50 (GR)	IC50 (AR)	IC50 (LXRα)	Compound	IC50 (PR)	IC50 (RORα)	IC50 (RORβ)	IC50 (RORγ)
10 µM	> 20 µM	4 µM	16 µM	CCCCCCn1c(=O)c2ccccc2c2cc(C(O)(C(F)(F)F)C(F)(F)F)ccc21 [Compound 16]				
3 µM	16 µM	6.4 µM	12 µM	CCCCn1c(=O)c2ccc(C)cc2c2cc(C(O)(C(F)(F)F)C(F)(F)F)ccc21 [Compound 36]	3.7 µM			
	> 20 µM	> 3 µM	7 µM	CCCCn1c(=O)c2ccc(O)cc2c2cc(C(O)(C(F)(F)F)C(F)(F)F)ccc21 [Compound 38]	5.1 µM			
> 20 µM		1.7 µM		Cc1cc(C(O)(C(F)(F)F)C(F)(F)F)cc2c1[nH]c(=O)c1cc(F)ccc12 [Compound 44]		> 20 µM	> 20 µM	> 20 µM

Reference: article PMC6073568, “Efficient Lead Finding, Activity Enhancement and Preliminary Selectivity Control of Nuclear Receptor Ligands Bearing a Phenanthridinone Skeleton” (International Journal of Molecular Sciences, 2018)
